PubChem BioAssay AID1259407 (Chemical Carcinogenesis Research Information System (CCRIS), 2018)
Active and inactive are the calls of the source. No rule for the calls is given here.

System: CCRIS mutagenicity, Ames/micronucleus/aberration tests
Test: CCRIS mutagenicity studies
[1] = Test System: AMES SALMONELLA TYPHIMURIUM, Strain/Indicator: TA98, Metabolic Activation: NONE, Method: STANDARD PLATE
[2] = Test System: AMES SALMONELLA TYPHIMURIUM, Strain/Indicator: TA100, Metabolic Activation: NONE, Method: STANDARD PLATE
[3] = Test System: AMES SALMONELLA TYPHIMURIUM, Strain/Indicator: TA98, Metabolic Activation: HAMSTER, LIVER, S-9, AROCLOR 1254 (10%), Method: PREINCUBATION
[4] = Test System: AMES SALMONELLA TYPHIMURIUM, Strain/Indicator: TA98, Metabolic Activation: RAT, LIVER, S-9, AROCLOR 1254 (10%), Method: PREINCUBATION
[5] = Test System: AMES SALMONELLA TYPHIMURIUM, Strain/Indicator: TA100, Metabolic Activation: HAMSTER, LIVER, S-9, AROCLOR 1254 (10%), Method: PREINCUBATION
[6] = Test System: AMES SALMONELLA TYPHIMURIUM, Strain/Indicator: TA100, Metabolic Activation: NONE, Method: PREINCUBATION
[7] = Test System: AMES SALMONELLA TYPHIMURIUM, Strain/Indicator: TA100, Metabolic Activation: RAT, LIVER, S-9, AROCLOR 1254 (10%), Method: PREINCUBATION
[8] = Test System: AMES SALMONELLA TYPHIMURIUM, Strain/Indicator: TA1535, Metabolic Activation: HAMSTER, LIVER, S-9, AROCLOR 1254 (10%), Method: PREINCUBATION
[9] = Test System: AMES SALMONELLA TYPHIMURIUM, Strain/Indicator: TA1535, Metabolic Activation: NONE, Method: PREINCUBATION
[10] = Test System: AMES SALMONELLA TYPHIMURIUM, Strain/Indicator: TA1535, Metabolic Activation: RAT, LIVER, S-9, AROCLOR 1254 (10%), Method: PREINCUBATION
[11] = Test System: AMES SALMONELLA TYPHIMURIUM, Strain/Indicator: TA98, Metabolic Activation: RAT, LIVER, S-9, AROCLOR 1254, Method: STANDARD PLATE

CC(O)CN1CC(C)OC1=O (configuration not stated)
mutagenic call (Test System: AMES SALMONELLA TYPHIMURIUM, Strain/Indicator: TA98, Metabolic Activation: HAMSTER, LIVER, S-9, AROCLOR 1254 (10%), Method: STANDARD PLATE): inactive; negative | mutagenic call [1]: inactive; negative | mutagenic call (Test System: AMES SALMONELLA TYPHIMURIUM, Strain/Indicator: TA98, Metabolic Activation: RAT, LIVER, S-9, AROCLOR 1254 (10%), Method: STANDARD PLATE): inactive; negative | mutagenic call (Test System: AMES SALMONELLA TYPHIMURIUM, Strain/Indicator: TA100, Metabolic Activation: HAMSTER, LIVER, S-9, AROCLOR 1254 (10%), Method: STANDARD PLATE): inactive; negative | mutagenic call [2]: inactive; negative | mutagenic call (Test System: AMES SALMONELLA TYPHIMURIUM, Strain/Indicator: TA100, Metabolic Activation: RAT, LIVER, S-9, AROCLOR 1254 (10%), Method: STANDARD PLATE): inactive; negative | mutagenic call (Test System: AMES SALMONELLA TYPHIMURIUM, Strain/Indicator: TA1535, Metabolic Activation: HAMSTER, LIVER, S-9, AROCLOR 1254 (10%), Method: STANDARD PLATE): inactive; negative | mutagenic call (Test System: AMES SALMONELLA TYPHIMURIUM, Strain/Indicator: TA1535, Metabolic Activation: NONE, Method: STANDARD PLATE): inactive; negative | mutagenic call (Test System: AMES SALMONELLA TYPHIMURIUM, Strain/Indicator: TA1535, Metabolic Activation: RAT, LIVER, S-9, AROCLOR 1254 (10%), Method: STANDARD PLATE): inactive; negative | mutagenic call (Test System: AMES SALMONELLA TYPHIMURIUM, Strain/Indicator: TA1537, Metabolic Activation: HAMSTER, LIVER, S-9, AROCLOR 1254 (10%), Method: STANDARD PLATE): inactive; negative | mutagenic call (Test System: AMES SALMONELLA TYPHIMURIUM, Strain/Indicator: TA1537, Metabolic Activation: NONE, Method: STANDARD PLATE): inactive; negative | mutagenic call (Test System: AMES SALMONELLA TYPHIMURIUM, Strain/Indicator: TA1537, Metabolic Activation: RAT, LIVER, S-9, AROCLOR 1254 (10%), Method: STANDARD PLATE): inactive; negative | mutagenic call (Test System: AMES SALMONELLA TYPHIMURIUM, Strain/Indicator: TA1538, Metabolic Activation: HAMSTER, LIVER, S-9, AROCLOR 1254 (10%), Method: STANDARD PLATE): inactive; negative | mutagenic call (Test System: AMES SALMONELLA TYPHIMURIUM, Strain/Indicator: TA1538, Metabolic Activation: NONE, Method: STANDARD PLATE): inactive; negative | mutagenic call (Test System: AMES SALMONELLA TYPHIMURIUM, Strain/Indicator: TA1538, Metabolic Activation: RAT, LIVER, S-9, AROCLOR 1254 (10%), Method: STANDARD PLATE): inactive; negative | mutagenic call (Test System: MOUSE LYMPHOMA, Strain/Indicator: L5178Y (TK+/TK-), Metabolic Activation: NONE, Method: SUSPENSION/PLATE): active; positive. reevaluation of results: positive | mutagenic call (Test System: MOUSE LYMPHOMA, Strain/Indicator: L5178Y (TK+/TK-), Metabolic Activation: RAT, LIVER, S-9, AROCLOR 1254, Method: SUSPENSION/PLATE): active; positive. reevaluation of results: equivocal

COc1ccc([N+](=O)[O-])cc1N=Nc1c(O)c(C(=O)Nc2cccc([N+](=O)[O-])c2)cc2ccccc12
mutagenic call [3]: active; positive | mutagenic call (Test System: AMES SALMONELLA TYPHIMURIUM, Strain/Indicator: TA98, Metabolic Activation: NONE, Method: PREINCUBATION): active; positive | mutagenic call [4]: active; positive | mutagenic call [5]: active; positive | mutagenic call [6]: active; positive | mutagenic call [7]: active; positive | mutagenic call [8]: inactive; negative | mutagenic call [9]: inactive; negative | mutagenic call [10]: inactive; negative | mutagenic call (Test System: AMES SALMONELLA TYPHIMURIUM, Strain/Indicator: TA1537, Metabolic Activation: HAMSTER, LIVER, S-9, AROCLOR 1254 (10%), Method: PREINCUBATION): active; positive | mutagenic call (Test System: AMES SALMONELLA TYPHIMURIUM, Strain/Indicator: TA1537, Metabolic Activation: NONE, Method: PREINCUBATION): active; positive | mutagenic call (Test System: AMES SALMONELLA TYPHIMURIUM, Strain/Indicator: TA1537, Metabolic Activation: RAT, LIVER, S-9, AROCLOR 1254 (10%), Method: PREINCUBATION): active; positive

COc1ccccc1NC(=O)c1csc([N+](=O)[O-])c1
mutagenic call [1]: active; positive | mutagenic call [2]: active; positive

COc1c2c(cc3oc4c(CCC(C)(C)O)ccc(O)c4c(=O)c13)O[C@H]1OC=C[C@@H]21
mutagenic call [1]: active; positive | mutagenic call [11]: active; positive | mutagenic call [2]: inactive; negative | mutagenic call (Test System: AMES SALMONELLA TYPHIMURIUM, Strain/Indicator: TA100, Metabolic Activation: RAT, LIVER, S-9, AROCLOR 1254, Method: STANDARD PLATE): active; positive

Cn1c(NO)nc2c3cccnc3ccc21
mutagenic call (Test System: AMES SALMONELLA TYPHIMURIUM, Strain/Indicator: TA98(NR), Metabolic Activation: NADPH, Method: STANDARD PLATE): active; positive | mutagenic call (Test System: AMES SALMONELLA TYPHIMURIUM, Strain/Indicator: TA98(NR), Metabolic Activation: NONE, Method: STANDARD PLATE): active; positive | mutagenic call (Test System: AMES SALMONELLA TYPHIMURIUM, Strain/Indicator: TA98(NR), Metabolic Activation: RAT, LIVER, MICROSOMES, NADPH, Method: STANDARD PLATE): active; positive | mutagenic call (Test System: AMES SALMONELLA TYPHIMURIUM, Strain/Indicator: TA98(NR), Metabolic Activation: RAT, LIVER, MICROSOMES, Method: STANDARD PLATE): active; positive | mutagenic call (Test System: AMES SALMONELLA TYPHIMURIUM, Strain/Indicator: TA98(NR), Method: STANDARD PLATE): active; positive | mutagenic call [1]: active; positive

CC(O)CBr (configuration not stated)
mutagenic call (Test System: AMES SALMONELLA TYPHIMURIUM, Strain/Indicator: TA97, Metabolic Activation: HAMSTER, LIVER, S-9, AROCLOR 1254 (10%), Method: PREINCUBATION): inactive; negative | mutagenic call (Test System: AMES SALMONELLA TYPHIMURIUM, Strain/Indicator: TA97, Metabolic Activation: NONE, Method: PREINCUBATION): inactive; negative | mutagenic call (Test System: AMES SALMONELLA TYPHIMURIUM, Strain/Indicator: TA97, Metabolic Activation: RAT, LIVER, S-9, AROCLOR 1254 (10%), Method: PREINCUBATION): inactive; negative | mutagenic call [3]: inactive; negative | mutagenic call [4]: inactive; negative | mutagenic call [5]: inactive; negative | mutagenic call [6]: active; positive | mutagenic call [7]: active; positive | mutagenic call [8]: active; positive | mutagenic call [9]: active; positive | mutagenic call [10]: active; positive

Cc1cc2c(nc(N)n2C)c2nc(-c3ccccc3)cnc12
mutagenic call [11]: active; positive

Cc1cc(Cc2cc(C)cc(C(C)(C)C)c2O)c(O)c(C(C)(C)C)c1
mutagenic call [1]: inactive; negative | mutagenic call (Test System: AMES SALMONELLA TYPHIMURIUM, Strain/Indicator: TA98, Metabolic Activation: S-9, Method: STANDARD PLATE): inactive; negative | mutagenic call [2]: inactive; negative | mutagenic call (Test System: AMES SALMONELLA TYPHIMURIUM, Strain/Indicator: TA100, Metabolic Activation: S-9, Method: STANDARD PLATE): inactive; negative
